According to the supplement of paper PMC10307832:

Tests used:
Test in all cases: relative viability (nuclei count vs DMSO), 5 days (fraction); higher = more cells survive
OSI-027 + Alpelisib = compound: COc1cccc2cc(-c3nc([C@H]4CC[C@H](C(=O)O)CC4)n4ncnc(N)c34)[nH]c12 [OSI-027] + Cc1nc(NC(=O)N2CCC[C@H]2C(N)=O)sc1-c1ccnc(C(C)(C)C(F)(F)F)c1 [Alpelisib] (partner 2 µM)
Outline: (§1)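 After 5 days of treatment, lung cancer cells in 1536-well plates were fixed and stained in a single step (final 0.05% Triton X-100, 1% formaldehyde, 1 ug/ml Hoechst) and their nuclei counted on 4× images. Treatment had been applied by pin tool the day after seeding as one drug alone or as a fixed anchor-drug dose with five library-drug doses (not always all listed) in √10 steps. Relative viability is the nuclei count of treated wells divided by that of vehicle wells, and values are medians of duplicate plates.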

OSI-027 + Dasatinib = compound: COc1cccc2cc(-c3nc([C@H]4CC[C@H](C(=O)O)CC4)n4ncnc(N)c34)[nH]c12 [OSI-027] + Cc1nc(Nc2ncc(C(=O)Nc3c(C)cccc3Cl)s2)cc(N2CCN(CCO)CC2)n1 [Dasatinib] (partner 0.075 µM)
Outline: as §1

Alpelisib + Luminespib = compound: Cc1nc(NC(=O)N2CCC[C@H]2C(N)=O)sc1-c1ccnc(C(C)(C)C(F)(F)F)c1 [Alpelisib] + CCNC(=O)c1noc(-c2cc(C(C)C)c(O)cc2O)c1-c1ccc(CN2CCOCC2)cc1 [Luminespib] (partner 0.01 µM)
Outline: as §1

OSI-027 + Luminespib = compound: COc1cccc2cc(-c3nc([C@H]4CC[C@H](C(=O)O)CC4)n4ncnc(N)c34)[nH]c12 [OSI-027] + CCNC(=O)c1noc(-c2cc(C(C)C)c(O)cc2O)c1-c1ccc(CN2CCOCC2)cc1 [Luminespib] (partner 0.01 µM)
Outline: as §1

Row | Cell Line | relative viability (OSI-027 + Alpelisib; first compound 0.01 µM) | relative viability (OSI-027 + Alpelisib; first compound 0.03162 µM) | relative viability (OSI-027 + Alpelisib; first compound 0.1 µM) | relative viability (OSI-027 + Alpelisib; first compound 0.3162 µM) | relative viability (OSI-027 + Alpelisib; first compound 1 µM) | relative viability (OSI-027 + Dasatinib; first compound 0.01 µM) | relative viability (OSI-027 + Dasatinib; first compound 0.03162 µM) | relative viability (OSI-027 + Dasatinib; first compound 0.1 µM) | relative viability (OSI-027 + Dasatinib; first compound 0.3162 µM) | relative viability (OSI-027 + Dasatinib; first compound 1 µM) | relative viability (Alpelisib + Luminespib; first compound 0.04 µM) | relative viability (Alpelisib + Luminespib; first compound 0.1265 µM) | relative viability (Alpelisib + Luminespib; first compound 0.4 µM) | relative viability (Alpelisib + Luminespib; first compound 1.265 µM) | relative viability (Alpelisib + Luminespib; first compound 4 µM) | relative viability (OSI-027 + Luminespib; first compound 0.01 µM) | relative viability (OSI-027 + Luminespib; first compound 0.03162 µM) | relative viability (OSI-027 + Luminespib; first compound 0.1 µM) | relative viability (OSI-027 + Luminespib; first compound 0.3162 µM) | relative viability (OSI-027 + Luminespib; first compound 1 µM)
1 | 201T | 0.998 | 1 | 0.963 | 0.919 | 0.545 | 0.594 | 0.567 | 0.588 | 0.504 | 0.398 | 1.08 | 1.02 | 1.02 | 0.961 | 0.956 | 1.09 | 1.06 | 1 | 0.948 | 0.485
2 | A549 | 0.718 | 0.612 | 0.727 | 0.361 | 0.131 |  |  |  |  |  |  |  |  |  |  |  |  |  |  | 
3 | A-427 | 1.04 | 1.08 | 0.961 | 0.82 | 0.429 | 0.679 | 0.663 | 0.573 | 0.391 | 0.3 | 0.909 | 0.881 | 1.09 | 0.83 | 0.92 | 0.92 | 0.891 | 0.811 | 0.61 | 0.505
4 | ABC-1 | 0.98 | 0.921 | 0.903 | 0.628 | 0.537 | 0.656 | 0.516 | 0.384 | 0.486 | 0.216 | 0.432 | 0.932 | 0.554 | 0.228 | 0.391 |  | 0.321 | 0.405 | 0.377 | 0.386
5 | BEN | 1.02 | 0.695 | 0.67 | 0.447 | 0.319 | 0.304 | 0.567 | 0.273 | 0.218 | 0.169 | 0.341 | 0.101 | 0.474 | 0.332 | 0.159 | 0.327 | 0.467 | 0.307 | 0.187 | 0.221
6 | CAL-12T | 1.28 | 0.907 | 1.09 | 0.954 | 0.391 | 0.4 | 0.376 | 0.367 | 0.36 | 0.148 | 0.394 | 0.61 | 0.287 | 0.177 | 0.332 | 0.342 | 0.533 | 0.589 | 0.0997 | 0.117
7 | COR-L23 | 0.876 | 0.784 | 0.696 | 0.486 | 0.273 | 0.513 | 0.422 | 0.424 | 0.386 | 0.208 | 0.678 | 0.748 | 0.696 | 0.62 | 0.477 | 0.851 | 0.671 | 0.772 | 0.499 | 0.289
8 | COR-L 105 | 1.05 | 0.85 | 0.963 | 0.658 | 0.524 | 0.322 | 0.328 | 0.299 | 0.236 | 0.243 | 0.768 | 0.565 | 0.956 | 0.59 | 0.86 | 0.58 | 0.707 | 0.862 | 0.526 | 0.472
